# Laboratory results as given in patent US20120328605A1, “COMPOSITIONS AND USES” (priority 2010, published 2012).
# Key:
# [1] = system: Lineage-CD11b+ monocytes; assay: Monocyte analysis and counting after adjuvant injection in mice; type: in vivo, C57BL/6 mice
# Experimental: (§1) 24-Hours after injection of the TLR adjuvants, peripheral blood was drawn from C57BL/6 mice via cardiac puncture with lithium-heparin as anticoagulant. Red blood cell lysis was performed twice on pooled blood with Ammonium Chloride-based Buffer (Sigma, Steinheim, Germany) and cells were counted with the EasyCount™ System (Immunicon). […] Cells were finally washed three times and fixed for 15 min. with a 2% paraformaldehyde solution in PBS. Fluorescence minus one (FMO) controls were always included in the assays for fluorescent compensation setting. Samples were acquired on a flow cytometer (BD FACSCanto II) and data analyzed with the FACSDiva software (BD Biosciences). Monocytes were identified by their Side/Forward scatter properties and gated as CD3-/CD45R/B220-/Ly-6G-/NK1.1-(Lineage-)/CD11b+ cells. CD11b+ monocyte frequency was reported as a percentage of the total cells excluding debris.
# as §1, with “24 hours” for “24-Hours”, “each immunomodulator,” for “the TLR adjuvants,”, “min” for “min.”, “monocytes” for “monocyte”
# [2] = system: CD11b+ peripheral blood monocytes; assay: Ex vivo uptake assay of Aβ1-42 by peripheral blood monocytes; type: cell-based, C57BL/6 mice; conditions: AS01B mouse full dose (5 ug per mouse) or CRX601 2 μg i.m.; FIG. 14
# Experimental: Preparation of cells: Peripheral blood was drawn from C57BL/6 mice via cardiac puncture with lithium-heparin as anticoagulant, 24-hours after injection of the adjuvants used herein. Red blood cell lysis was performed twice on pooled blood with Ammonium Chloride-based Buffer (Sigma, Steinheim, Germany) and cells were counted with the EasyCount™ System (Immunicon). […]
# FACS analysis: cells were harvested after incubation with fluorescent Aβ peptide with Trypsin/EDTA and cold PBS and washed three times. 500,000 cells were incubated in 96-well plate for 10 min. on ice in the presence of Rat anti-Mouse CD16/CD32 (clone 2.4G2-BD Fc Block™) and further stained for 30 min. with a combination of the following directly conjugated antibodies at their pre-determined optimal concentration: PE-Hamster anti-Mouse CD3 (clone 145-2C11), Rat anti-Mouse CD45R/B220 (clone RA3-6B2), Rat anti-Mouse Ly-6G (clone 1A8), Mouse anti-Mouse NK1.1 (clone PK136), APC-conjugated Rat anti-Mouse CD11b (clone M1/70), PE-Cy7-conjugated Hamster anti-Mouse CD11c (clone HL3), (all from BD PharMingen). […]
# Samples were acquired on a flow cytometer (BD FACSCanto II) and data analyzed with the FACSDiva software (BD Biosciences). […]
# [3] = single i.m. injection, 24 hrs, FIG. 12
structure (smiles),measurement,setting,value
CCCCCCCCCCC[C@H](CC(=O)N[C@H]1[C@H](OC[C@H](NC(=O)C[C@@H](CCCCCCCCCCC)OCCCCCCCCCC)C(=O)O)O[C@H](CO)[C@@H](OP(=O)(O)O)[C@@H]1OC(=O)C[C@@H](CCCCCCCCCCC)OCCCCCCCCCC)OCCCCCCCCCC [CRX601],circulating monocytes numbers following injection,"[1]; i.m. or i.p. routes, doses of b403, FIG. 9",Upregulation of circulating monocytes numbers
same,dose enough to trigger an increase of the monocyte count compared to PBS,[1]; [3],1 µg
same,dose of maximum response (monocyte count),[1]; [3],10 µg
same,effect on monocyte count at 20 μg dose,"[1]; single i.m. injection, FIG. 12",down modulated
same,ex vivo uptake of Aβ42 by monocytes compared to PBS group,[2],higher amount of Aβ42
